Measurements: patent US10231980B2, “Cortexolone 17alpha-benzoate for use in the treatment of tumours” (COSMO TECHNOLOGIES LTD., priority 2014, dated 2019)
Like-named read-outs stand apart in the source and are kept apart here.

Experiments:
HT29 = assay: MTT colorimetric assay on epithelial intestinal cancer cells; assay type: cell-based; conditions: human, 72 h
Protocol: The experiment was performed to test and define anticancer activity in vitro of Cortexolone 17α-benzoate and cortexolone 17α-valerate, 21-propionate on cell lines representatives of epithelial intestinal tumours, namely HT29. The experiment method consisted in: • 1. Monolayer HT-29 cells were plated in: 96-wells plates at the density of 2×10^4 cells/mL. The cells plated were kept at 37° C. in 5% CO2 and left to attach for 24 h. • 2. […] After 72 h of treatment, the MTT colorimetric assay was performed.

LNCaP = assay: ATP-dependent cell viability assay (Cell Titer Glo), Example 12; conditions: for IC50: Homo sapiens
Source text: (§1) Data shown in Table I were fitted through sigmoidal dose response curves and analyzed using Prizm statistical.

MiaPaca2 = assay: as above; conditions: for IC50: Homo sapiens
Source text: as §1

PC3 = assay: as above; conditions: for IC50: Homo sapiens
Source text: as §1

Panc1 = assay: as above; conditions: for IC50: Homo sapiens
Source text: as §1

MCF7 = assay: In vitro proliferation / cytotoxic assay on breast cancer cells (Examples 14, 25)
Protocol: as §1
For the cytotoxic assay, cells were seeded in 96-well flat bottom culture plates in media containing charcoal stripped serum. After 24 hours, test compounds were added to the cells. DMSO was used as the vehicle negative control and RU486 as the positive control. After 72 hour incubation, cells were harvested and lysed to determine cell viability using the Cell Titer Glow assay.

7 cancer cell lines = assay: Therapeutic index over a panel of cancer cell lines; assay type: cell-based; conditions: average over the cancer cell lines of Table VII
Protocol: (§2) The compound toxicity was determined as follow:
(§3) Therapeutic Index=Safety/Potency=IC50 stimulated PBMC/IC50 cancer cell

stimulated PBMC [1] = assay: IC50 on stimulated (actively dividing) PBMC; assay type: cell-based, human; conditions: PBMC Stim; Table IV
stimulated PBMC [2] = assay: IC50 on stimulated (actively dividing) PBMC; assay type: cell-based, human; conditions: Homo sapiens, PBMC, PBMC STIMULATED; Table IV; read-out: In vitro proliferation IC50
Protocol: as §2, §3

MiaPaca2 (AR low) = assay: ATP-dependent proliferation assay with 10 nM DHT, pancreatic cancer cells (Examples 3, 4, 7); conditions: for TI on Resting PBMC: IC50 resting PBMC / IC50 MiaPaca2; for TI on Stimulated PBMC: IC50 stimulated PBMC / IC50 MiaPaca2
Protocol: (§4) The experimental method consisted of: • 1. […] After 24 hrs, 10 nM DHT (dihydrotestosterone) with or without anti-androgen compounds, or DMSO vehicle (negative control) was added to the cultures. • 3.
(§5) Data from Experiment 1 were fitted through sigmoidal dose response curves and analyzed using Prizm statistical analysis software. […] The results from 2 sets of experiments follow.
(§6) Data from Experiment 1 was fitted through sigmoidal dose response curves and analyzed using Prizm statistical analysis software.

Panc1 (AR+) = assay: as above; conditions: for TI on Resting PBMC: IC50 resting PBMC / IC50 Panc1; for TI on Stimulated PBMC: IC50 stimulated PBMC / IC50 Panc1
Protocol: as §4, §5, §6

[3] = test system: MiaPaca-2 pancreatic tumor xenograft; assay: Human pancreatic tumor xenograft in nude mice; assay type: in vivo
Protocol: Cortexolone 17α-benzoate and Cyproterone Acetate were separately diluted in DMSO/2-hydroxypropyl β-cyclodextrin (vehicle).
The test was carried out comparing the anti-tumor activity of cortexolone 17α-benzoate at two different dosages (8.0 mg/kg, corresponding approximately at 230 μM, and 40 mg/kg, corresponding approximately at 1150 μM), versus the vehicle (i.e. 0.4% (v/v) tween 80 and 0.5% (w/v) carboxymethylcellulose in normal saline) and versus the comparator Cyproterone Acetate at two different dosages (7.4 mg/kg and 37 mg/kg).
1×10^6 MiaPaca-2 cells suspended in matrigel were sub-cutaneously injected into 6 week old athymic nude mice.
The treatment with the tested compounds, with the vehicle and with the comparative compound, was initiated after the tumor volume has reached 50 mm^3 after transplantation. All compounds were injected 100 μL/mouse of low dose solution (approximately 230 μM) or 100 μL/mouse of high dose solution (approximately 1150 μM) of cortexolone 17α-benzoate, vehicle and Cyproterone Acetate, respectively. Compounds and controls were administered subcutaneously daily for 28 days.
Tumors were measured every 4 days with a digital caliper.
The results are plotted in FIG. 1 as average change in tumor volume relative to the start of treatment. Tumor volume was calculated according to the formula 0.5236(r1)^2(r2) where r1<r2.
Error bars are the SEM for 7 to 10 mice per treatment group. P values were calculated according to the Student's t test.
Cortexolone 17α-valerate-21-propionate and Cyproterone Acetate were separately diluted in DMSO/2-hydroxypropyl β-cyclodextrin (vehicle).
The test was carried out comparing the anti-tumor activity of cortexolone 17α-valerate-21-propionate at two different dosages (approximately 8.6 mg/kg and 43 mg/kg) versus the vehicle (i.e. 0.4% (v/v) tween 80 and 0.5% (w/v) carboxymethylcellulose in normal saline) and versus the comparator Cyproterone Acetate at two different dosages (7.4 mg/kg and 37 mg/kg).
1×10^6 MiaPaca-2 cells suspended in matrigel were subcutaneously injected into 6 week old athymic nude mice.
The treatment with the tested compound, with the vehicle and with the comparative compound was initiated after the tumor has reached a volume of 50 mm^3 after implantation, injecting subcutaneously 100 μL/mouse of low dose solution (approximately 230 μM) or 100 μL/mouse of high dose solution (approximately 1150 μM) of cortexolone 17α-valerate-21-propionate, vehicle and Cyproterone Acetate, respectively. Compounds and controls were administered subcutaneously daily for 28 days. Tumors were measured every 4 days with a digital caliper.
The results are plotted in FIG. 2 as average change in tumor volume relative to the start of treatment. Tumor volume was calculated according to the formula 0.5236(r1)^2(r2) where r1<r2.
Cyproterone acetate (CPA), a well-known anti-androgen, was used as control. Briefly 1×10^6 MiaPaca2 cells suspended in matrigel were subcutaneously (sc) injected into 6 week old male athymic nude mice. Tumors were measured every 4 days with a digital caliper. Tumor volume was calculated according to the formula: 0.5236(r1)2(r2) where r1<r2. Treatment with CB-03-06 and control compounds were initiated after the tumor had reached 50 mm^3. Compounds diluted in DMSO/2-hydroxypropyl b-cyclodextrin (vehicle) were subcutaneously injected daily (100 microL/mouse) at the concentration of 40 mg/Kg daily for 28 consecutive days.

[4] = LNCaP, read-out: In vitro proliferation IC50
[5] = PC-3, 72 h, PC3, Tables I and II, titrated 3 uM to 200 uM, 3 days
[6] = PC-3, read-out: In vitro proliferation IC50, PC3, Table IV
[7] = Experiment 1, 0 = higher toxicity in PBMC

CCCC(=O)OC1(C(=O)CO)CCC2C3CCC4=CC(=O)CC[C@]4(C)C3=CC[C@@]21C (single isomer, unassigned) [CB-03-04]
Therapeutic Index = IC50 resting PBMC/IC50 cancer cell (HT29): 7
Therapeutic Index = IC50 stimulated PBMC/IC50 cancer cell (HT29): 7
IC50 (LNCaP; LNCaP, 72 h): 46 µM
IC50 (LNCaP; [4]): 46 µM
Therapeutic Index = IC50 resting PBMC/IC50 cancer cell (LNCaP; human, 3 days): 8
Therapeutic Index = IC50 stimulated PBMC/IC50 cancer cell (LNCaP; human, 3 days): 8
Therapeutic Index = IC50 resting PBMC/IC50 cancer cell (MiaPaca2; human, 3 days): 2
Therapeutic Index = IC50 stimulated PBMC/IC50 cancer cell (MiaPaca2; human, 3 days): 2
IC50 (PC3; [5]): 135 µM
IC50 (PC3; [6]): 140 µM
Therapeutic Index = IC50 resting PBMC/IC50 cancer cell (PC3; human, 3 days): 3
Therapeutic Index = IC50 stimulated PBMC/IC50 cancer cell (PC3; human, 3 days): 3
Therapeutic Index = IC50 resting PBMC/IC50 cancer cell (Panc1; human, 3 days): 1
Therapeutic Index = IC50 stimulated PBMC/IC50 cancer cell (Panc1; human, 3 days): 1
Therapeutic Index = IC50 resting PBMC/IC50 cancer cell (MCF7; human, 3 days): 4
Therapeutic Index = IC50 stimulated PBMC/IC50 cancer cell (MCF7; human, 3 days): 4
Therapeutic Index = IC50 stimulated PBMC/IC50 cancer cell, AVERAGE (7 cancer cell lines): 4
Therapeutic Index = IC50 resting PBMC/IC50 cancer cell (stimulated PBMC [1]): 1

CCC(=O)O[C@]1(C(=O)CO)CC[C@H]2[C@@H]3CCC4=CC(=O)CC[C@]4(C)[C@H]3CC[C@@]21C [CB-03-01, cortexolone 17α-propionate]
IC50 (LNCaP; LNCaP, 72 h): 33 µM
IC50 (LNCaP; [4]): 33 µM
Therapeutic Index = IC50 resting PBMC/IC50 cancer cell (LNCaP; human, 3 days): 0
Therapeutic Index = IC50 stimulated PBMC/IC50 cancer cell (LNCaP; human, 3 days): 0
Therapeutic Index = IC50 resting PBMC/IC50 cancer cell (MiaPaca2; human, 3 days): 0
Therapeutic Index = IC50 stimulated PBMC/IC50 cancer cell (MiaPaca2; human, 3 days): 0
IC50 (PC3; [5]): 190 µM
IC50 (PC3; [6]): 190 µM
Therapeutic Index = IC50 resting PBMC/IC50 cancer cell (PC3; human, 3 days): 0
Therapeutic Index = IC50 stimulated PBMC/IC50 cancer cell (PC3; human, 3 days): 0
Therapeutic Index = IC50 resting PBMC/IC50 cancer cell (Panc1; human, 3 days): 0
Therapeutic Index = IC50 stimulated PBMC/IC50 cancer cell (Panc1; human, 3 days): 0
Therapeutic Index = IC50 resting PBMC/IC50 cancer cell (MCF7; human, 3 days): 0
Therapeutic Index = IC50 stimulated PBMC/IC50 cancer cell (MCF7; human, 3 days): 0
Therapeutic Index = IC50 stimulated PBMC/IC50 cancer cell, AVERAGE (7 cancer cell lines): 0
Therapeutic Index = IC50 resting PBMC/IC50 cancer cell (stimulated PBMC [1]): 1

CCCC(=O)OCC(=O)[C@@]1(OC(=O)CCC)CCC2C3CCC4=CC(=O)CC[C@]4(C)C3CC[C@@]21C (stereo partly drawn) [CB-03-03]
IC50 (stimulated PBMC [2]): 140 µM
IC50 (LNCaP; LNCaP, 72 h): 16 µM
IC50 (LNCaP; [4]): 16 µM
Therapeutic Index = IC50 resting PBMC/IC50 cancer cell (LNCaP; human, 3 days): 9
Therapeutic Index = IC50 stimulated PBMC/IC50 cancer cell (LNCaP; human, 3 days): 9
IC50 (MiaPaca2; MIA PaCa-2, 72 h): 30 µM
IC50 (MiaPaca2; MIA PaCa-2, read-out: In vitro proliferation IC50): 30 µM
Therapeutic Index = IC50 resting PBMC/IC50 cancer cell (MiaPaca2; human, 3 days): 5
Therapeutic Index = IC50 stimulated PBMC/IC50 cancer cell (MiaPaca2; human, 3 days): 5
IC50 (PC3; [5]): 53 µM
IC50 (PC3; [6]): 53 µM
Therapeutic Index = IC50 resting PBMC/IC50 cancer cell (PC3; human, 3 days): 3
Therapeutic Index = IC50 stimulated PBMC/IC50 cancer cell (PC3; human, 3 days): 3
IC50 (Panc1; PANC-1, 72 h): 70 µM
IC50 (Panc1; PANC-1, read-out: In vitro proliferation IC50): 70 µM
Therapeutic Index = IC50 resting PBMC/IC50 cancer cell (Panc1; human, 3 days): 2
Therapeutic Index = IC50 stimulated PBMC/IC50 cancer cell (Panc1; human, 3 days): 2
IC50 (MCF7; Homo sapiens, MCF7, read-out: In vitro proliferation IC50): 32 µM
Therapeutic Index = IC50 resting PBMC/IC50 cancer cell (MCF7; human, 3 days): 4
Therapeutic Index = IC50 stimulated PBMC/IC50 cancer cell (MCF7; human, 3 days): 4
Therapeutic Index = IC50 stimulated PBMC/IC50 cancer cell, AVERAGE (7 cancer cell lines): 4
Therapeutic Index = IC50 resting PBMC/IC50 cancer cell (stimulated PBMC [1]): 1

CC(=O)O[C@]1(C(C)=O)CC[C@H]2[C@@H]3C=C(Cl)C4=CC(=O)[C@@H]5C[C@@H]5[C@]4(C)[C@H]3CC[C@@]21C [Cyproterone Acetate, reference compound]
TI on Resting PBMC (MiaPaca2 (AR low); [7]): 0
TI on Resting PBMC (MiaPaca2 (AR low); Experiment 2): 1
TI on Stimulated PBMC (MiaPaca2 (AR low); [7]): 2
TI on Stimulated PBMC (MiaPaca2 (AR low); Experiment 2): 2
TI on Resting PBMC (Panc1 (AR+); [7]): 0
TI on Resting PBMC (Panc1 (AR+); Experiment 2): 4
TI on Stimulated PBMC (Panc1 (AR+); [7]): 1
TI on Stimulated PBMC (Panc1 (AR+); Experiment 2): 1
IC50 (LNCaP; LNCaP, 72 h): 22 µM
IC50 (LNCaP; [4]): 22 µM
Therapeutic Index = IC50 resting PBMC/IC50 cancer cell (LNCaP; LNCaP, Table IV): 3
Therapeutic Index = IC50 stimulated PBMC/IC50 cancer cell (LNCaP; LNCaP, Table VII): 3
Therapeutic Index = IC50 resting PBMC/IC50 cancer cell (MiaPaca2; MiaPaca2, Table IV): 2
Therapeutic Index = IC50 stimulated PBMC/IC50 cancer cell (MiaPaca2; MiaPaca2, Table VII): 2
IC50 (PC3; [5]): 90 µM
IC50 (PC3; [6]): 90 µM
Therapeutic Index = IC50 resting PBMC/IC50 cancer cell (PC3; PC3, Table IV): 1
Therapeutic Index = IC50 stimulated PBMC/IC50 cancer cell (PC3; PC3, Table VII): 1
Therapeutic Index = IC50 resting PBMC/IC50 cancer cell (Panc1; Panc1, Table IV): 1
Therapeutic Index = IC50 stimulated PBMC/IC50 cancer cell (Panc1; Panc1, Table VII): 1
Therapeutic Index = IC50 resting PBMC/IC50 cancer cell (MCF7; MCF7, Table IV): 1
Therapeutic Index = IC50 stimulated PBMC/IC50 cancer cell (MCF7; MCF7, Table VII): 1
pancreatic tumor size relative to the size when treatment was initiated ([3]; Example 5, MiaPaca-2 xenograft, nude mice, SC daily 28 days, high dose of cortexolone 17α-benzoate (40 mg/kg)): 12 fold
pancreatic tumor size relative to the initial tumor size ([3]; Example 6, MiaPaca-2 xenograft, nude mice, SC daily 28 days, for the time of treatment): ≥ 12 fold
pancreatic tumor size relative to the initial size ([3]; Example 22, MiaPaca2 xenograft, male nude mice, 40 mg/Kg SC daily 28 days, treatment period): 12 fold
Median survival ([3]; Example 22, MiaPaca2 xenograft, 40 mg/Kg SC daily 28 days): 40 days
Therapeutic Index = IC50 stimulated PBMC/IC50 cancer cell, AVERAGE (7 cancer cell lines): 1
Therapeutic Index = IC50 resting PBMC/IC50 cancer cell (stimulated PBMC [1]): 1
